Several values for one entry are separate records, joined by “and”; a condition that tells them apart may be missing. Equal values may be shown once. Read-outs that look alike come from different tables or passages of the source.
How the values were obtained:
primary human VSMCs [1] = assay: High-CaP medium-induced VSMC calcification; format: cell-based; conditions: for VSMC calcium deposition, % of high-CaP control: high-CaP medium, 5 days
Method: Incubation of VSMCs in high-CaP medium induced cell monolayer calcification after 5 days (Fig. 3b). […] The effect became significant from 0.1 µM (OEG2)2-IP4 on, where a 54% reduction in calcification was observed compared to untreated high-CaP medium-exposed cells.
(§1) Primary human VSMCs (C-12533, PromoCell, Heidelberg, Germany) were cultured according to the manufacturer's guidelines in SMC-2 culture medium (C-22062, PromoCell) and used up to passage 7. For calcification experiments cells were seeded onto 24-well plates (TPP) at a density of 20,000 cells/well and left to attach for 48–72 h. Complete medium was M199 medium (31150022, Thermo Fischer Scientific), supplemented with 10% v/v FBS (10270106, Thermo Fisher Scientific, Waltham, MA), 1% v/v penicillin/streptomycin (15140122, Thermo Fisher Scientific), and 4 mM L-glutamine (25030024, Thermo Fisher Scientific)[80]. Calcification of cell monolayers was induced as described previously[81] by treatment with CPP2-supplemented (50 µg Ca/mL) medium with or without test compounds (1, 3, 10, 30, and 100 µM) at a volume of 1 mL/well for 48 h at 37 °C, 5% CO2. In a second assay, calcification was induced similar to previous experiments[56] by cell treatment with or without test compounds (0.01, 0.1, 1, 10, and 100 µM) in complete medium supplemented with calcium (2.7 mM) and phosphate (2.5 mM) (CaP medium) at a volume of 1 mL/well for 5 days, and treatment medium was replaced on alternate days.
(§2) Calcium deposition on cell monolayers was assessed qualitatively by staining for calcium with 2% w/v Alizarin Red S aqueous solution (pH 4.2) (05600, Fluka Analytical). Cell monolayers in 24-well plates were washed with PBS (10010015, Thermo Fischer), fixed in 10% v/v NBF in PBS (F8775, Sigma-Aldrich) for 45 min at RT, washed with milli-Q water, incubated for 3 min with 300 µL Alizarin Red S solution, washed with milli-Q, and images were acquired using a Axiovert 35 microscope (Zeiss, Carl Zeiss Microscopy GmbH, Jena, Germany) at ×100 magnification. Calcium quantitation was performed after washing cells with PBS and then decalcifying cell monolayers with 0.1 M HCl overnight at 4 °C. Acidic supernatants were centrifuged (10,000 × g, 4 °C, 10 min) and calcium content was assessed using the calcium colorimetric assay.

primary human VSMCs [2] = assay: CPP2-induced VSMC calcification; format: cell-based; conditions: for VSMC calcium deposition, % of CPP2 control: CPP2 50 µg Ca/mL
Method: Macrophage accumulation and inflammation coincide with the initial phase of calcification. To this end, VSMCs and THP-1-derived macrophages were exposed to CPP2-supplemented medium. CPP2 prepared from human serum as described previously[61] (Supplementary Figs. 6 and 7), induced a pronounced VSMC monolayer calcification after 48 h, which was decreased by (OEG2)2-IP4 in a dose-dependent fashion, and the effect became significant at 10 µM (Fig. 3e). […] Both H2O2 (proxy for oxidative stress) and tumor necrosis factor-alpha (TNF-α) (proxy for inflammatory response) levels were assayed in the VSMC culture supernatants subsequent to CPP2 treatment with and without compounds[30]. However, no increase in H2O2 nor TNF-α compared to control could be detected in either assay. For the CPP-induced VSMC calcification assay (Fig. 3e) a roughly 10-fold higher concentration of (OEG2)2-IP4 was necessary to achieve similar activity as in the CaP-induced VSMC calcification assay (Fig. 3b). […] In the CaP assay, low inhibitor concentration may be sufficient to inhibit crystal nucleation, whereas for the CPP assay higher inhibitor concentrations may be needed to achieve sufficient particle stabilization by chemisorption of inhibitor onto CPPs. Similar results have been reported for hydrogen sulfide in the context of VC[62],[64]. […] An increase in the TNFα levels in the cell culture supernatants was not observed for (OEG2)2-IP4 with (Fig. 3h) and without (Supplementary Fig. 10) combined CPP2 treatment.
as §1, §2

primary human VSMCs [3] = assay: CPP1-induced VSMC calcium deposition; format: cell-based; conditions: for VSMC calcium deposition (CPP2 = 100): CPP1 50 µg Ca/mL
Method: as §2

PK in healthy rats, s.c. = format: in vivo, male Sprague-Dawley rats; conditions: for MRT: read-out: mean residence time (MRT) (converted); for plasma concentration: unit not given
[4] = Inhibition of calcium phosphate precipitation in serum-free buffer; format: physicochemical; conditions: for inhibition of calcium phosphate precipitation, serum-free: 10 mM calcium, 6 mM phosphate, HBS pH 7.4, 90 min, 37 °C
Excerpt: calcification in organs other than these are available from the present study.
We have included the latest research on CPPs and the respective literature now in the introduction (p. 4, line 74 ff.).
The way I see it the compound stabilizes CPP1, which can be more easily cleared unless it occurs in very high amounts and cannot be cleared at all. Therefore it is important to measure renal mineral clearance ± compound (see comment for Fig 3)
We have amended the discussion in the revised manuscript with respect to the hypothesis on the mechanism of action of (OEG2)2-IP4 postulated by the reviewer. (p. 32, line 614 ff.). We have further addressed the mechanism of action in response to Reviewer #4 Comment 3.
Did they test if (OEG2)2-IP4 compound alone stabilized supersaturated Ca and Pi solutions by forming colloids akin to CPP? […]
and phosphate and formation of hydroxyapatite with the assay from Heiss, A. et al.5. In brief, compound, 10 mM calcium solution and 6 mM phosphate solution in Hepes buffered saline (pH 7.4, RT) were incubated for 90 min at 37 °C and centrifuged at 8 000 x g for 5 min. The recovered pellet was dissolved in 1% (v/v) acetic acid and the calcium content quantified […]. (OEG2)2-IP4 alone stabilized supersaturated calcium and phosphate in […]
CPP1s (Rh < 100 nm) were detected by dynamic light scattering. […]
synergistic effect of (OEG2)2-IP4 with endogenous calcification inhibitors, such as fetuin-A in […]
that are not physiological (no serum), we prefer not to include these additional data in the […]

[5] = male, Sprague-Dawley, rat, in vivo, sc, 10 mg/kg s.c.
[6] = male, Sprague-Dawley, rat, in vivo, sc, 50 mg/kg s.c.
[7] = male, Sprague-Dawley, rat, plasma, sc, 100 mg/kg s.c.

COCCOCCO[C@@H]1[C@@H](OP(=O)(O)O)[C@H](OCCOCCOC)[C@@H](OP(=O)(O)O)[C@@H](OP(=O)(O)O)[C@H]1OP(=O)(O)O [(OEG2)2-IP4, 4,6-Di-O-(methoxy-diethyleneglycol)-myo-inositol-1,2,3,5-tetrakis(phosphate)]
VSMC calcium deposition, % of high-CaP control (primary human VSMCs [1]; 0.01 µM, replicates Fig. 3b): 129.5% and 91.16% and 131.6% | reduction in calcification vs untreated high-CaP medium-exposed cells (primary human VSMCs [1]; 0.1 µM): 54% | VSMC calcium deposition, % of high-CaP control (primary human VSMCs [1]; 0.1 µM): 56.69% and 37.74% and 44.37% | VSMC calcium deposition, % of high-CaP control (primary human VSMCs [1]; 1 µM): 4.7% and 5.812% and 10.69% | VSMC calcium deposition, % of high-CaP control (primary human VSMCs [1]; 10 µM): 4.402% and -0.7134% and 6.025% | VSMC calcium deposition, % of high-CaP control (primary human VSMCs [1]; 100 µM): 4.139% and 1.382% and 4.723% | calcium deposition (primary human VSMCs [1]; above 1 µM): almost completely abrogated | fold higher concentration necessary in CPP-induced vs CaP-induced VSMC calcification assay (primary human VSMCs [2]): roughly 10 fold | VSMC calcium deposition, % of CPP2 control (primary human VSMCs [2]; 1 µM, 48 h, replicates Fig. 3e): 88.4113% and 80.5453% and 68.3456% and 69.0785% | VSMC calcium deposition, % of CPP2 control (primary human VSMCs [2]; 3 µM, 48 h): 92.4907% and 73.6279% and 53.9051% and 56.3804% | concentration at which decrease of CPP2-induced calcification became significant (primary human VSMCs [2]; 48 h): 10 µM | VSMC calcium deposition (CPP2 = 100) (primary human VSMCs [3]; 1 µM, replicates Fig. 3g): 54.74% and 45.04% and 38.43% | VSMC calcium deposition (CPP2 = 100) (primary human VSMCs [3]; 10 µM): 14.07% and 5.29% and 7.26% | VSMC calcium deposition (CPP2 = 100) (primary human VSMCs [3]; 30 µM): 8.51% and 7.29% and 1.56% | VSMC calcium deposition (CPP2 = 100) (primary human VSMCs [3]; 100 µM): 1.78% and 6.75% and 5.25% | concentration from which calcium deposition was reduced to the level of control (primary human VSMCs [3]; CPP1): ≥ 10 µM | AUC(0-t) (PK in healthy rats, s.c.; male, Sprague-Dawley, rat, in vivo, sc, 10 mg/kg, 10 mg/kg s.c., t = 360 min): 19.8 µM·h | AUC(0-t) (PK in healthy rats, s.c.; male, Sprague-Dawley, rat, in vivo, sc, 50 mg/kg, 50 mg/kg s.c., tlast 1440 min): 120 µM·h | AUC(0-inf) (PK in healthy rats, s.c.; [5]): 19.9 µM·h | Tmax (PK in healthy rats, s.c.; [5]): 25 min | half-life (PK in healthy rats, s.c.; male, Sprague-Dawley, rat, in vivo, sc, 10 mg/kg s.c., healthy rats): 47 ± 1 min | Cmax (PK in healthy rats, s.c.; male, Sprague-Dawley, rat, in vivo, sc, 10 mg/kg s.c., read-out: Cmax): 12 ± 1 µM | AUC(0-inf) (PK in healthy rats, s.c.; [6]): 122 µM·h | half-life (PK in healthy rats, s.c.; [6]): 190 ± 66 min | Cmax (PK in healthy rats, s.c.; male, Sprague-Dawley, rat, in vivo, sc, 50 mg/kg s.c., read-out: Cmax): 71 ± 26 µM | MRT (PK in healthy rats, s.c.; male, Sprague-Dawley, rat, in vivo, sc): 78 min | precipitate formation, serum-free ([4]; 1 mM): no precipitate formed | inhibition of calcium phosphate precipitation, serum-free [4]: stabilized supersaturated calcium and phosphate in solution dose dependently

O=P(O)(O)O[C@H]1[C@H](OP(=O)(O)O)[C@@H](OP(=O)(O)O)[C@H](OP(=O)(O)O)[C@@H](OP(=O)(O)O)[C@H]1OP(=O)(O)O [IP6, myo-Inositol hexakisphosphate]
VSMC calcium deposition, % of high-CaP control (primary human VSMCs [1]; 0.01 µM, replicates Fig. 3b): 45.78% and 57.03% and 44% | VSMC calcium deposition, % of high-CaP control (primary human VSMCs [1]; 1 µM): 43.35% and 32.19% and 33.2% | VSMC calcium deposition, % of high-CaP control (primary human VSMCs [1]; 10 µM): 27.4% and 34.12% and 27.96% | reduction of VSMC mineralization (primary human VSMCs [1]; all doses studied (up to 100 µM)): 50–70% | VSMC calcium deposition, % of CPP2 control (primary human VSMCs [2]; 1 µM, 48 h, replicates Fig. 3e): 77.8896% and 82.8838% and 86.0538% and 91.73% | VSMC calcium deposition, % of CPP2 control (primary human VSMCs [2]; 3 µM, 48 h): 95.5105% and 90.2183% and 79.3785% and 87.2842% | VSMC calcium deposition, % of CPP2 control (primary human VSMCs [2]; 10 µM, 48 h): 37.8415% | VSMC calcium deposition, % of CPP2 control (primary human VSMCs [2]; 30 µM, 48 h): 57.6847% and 47.1535% and 71.7458% and 75.8811% | VSMC calcium deposition, % of CPP2 control (primary human VSMCs [2]; 100 µM, 48 h): 79.2544% and 65.4345% and 85.4719% | VSMC calcium deposition (CPP2 = 100) (primary human VSMCs [3]; 3 µM): 82.15% and 53.35% and 45.33% | VSMC calcium deposition (CPP2 = 100) (primary human VSMCs [3]; 100 µM): 138.44% and 188.13% and 99% | plasma concentrations (below lower limit of quantification) (PK in healthy rats, s.c.; 10 mg/kg s.c.): < 0.772 µM | Cmax (PK in healthy rats, s.c.; 10 mg/kg s.c., LLOQ = 772 nM): < LLOQ | plasma concentration (PK in healthy rats, s.c.; 100 mg/kg s.c., 5 min): 20.1 and 17.5 and 23.6 | plasma concentration (PK in healthy rats, s.c.; 100 mg/kg s.c., 0.5 h): 13.6 and 19.8 and 10.3 | AUC(0-inf) (PK in healthy rats, s.c.; [7]): 22.4 µM·h | Tmax (PK in healthy rats, s.c.; [7]): 12 min | half-life (PK in healthy rats, s.c.; [7]): 29 ± 15 min | AUC(0-t) (PK in healthy rats, s.c.; male, Sprague-Dawley, rat, plasma, sc, 100 mg/kg s.c., t = 90 min (Fig. 4d; tlast 360 in Suppl. Table 2)): 19.4 µM·h | Cmax (PK in healthy rats, s.c.; male, Sprague-Dawley, rat, plasma, sc, 100 mg/kg s.c., read-out: Cmax): 33 ± 10 µM | MRT (PK in healthy rats, s.c.; male, Sprague-Dawley, rat, plasma, sc): 45 min | inhibition of calcium phosphate precipitation, serum-free [4]: barely effective

— PMC7002685, “Inhibition of vascular calcification by inositol phosphates derivatized with ethylene glycol oligomers” (Nature Communications, 2020)
